Source: PMC7370999, “The Neighboring Subunit Is Engaged to Stabilize the Substrate in the Active Site of Plant Arginases” (Frontiers in Plant Science, 2020)

Key:
MtARGAH = target: T1, MtARGAH (Medicago truncatula, UniProt G7JFU5); assay: turnover to ornithine during crystallization, seen in crystal structure; type: biochemical; settings: 50 mM L-arginine in cocrystallization; Mn2+ enzyme
T1 construct: gene ARGAH; full-length, 338 residues incl. predicted 15-residue signal peptide; N-terminal His6-tag cut by TEV (vector pMCSG68); E. coli BL21 Gold; hexamer, theoretical 224 kDa
T1 sequence (G7JFU5 1-338): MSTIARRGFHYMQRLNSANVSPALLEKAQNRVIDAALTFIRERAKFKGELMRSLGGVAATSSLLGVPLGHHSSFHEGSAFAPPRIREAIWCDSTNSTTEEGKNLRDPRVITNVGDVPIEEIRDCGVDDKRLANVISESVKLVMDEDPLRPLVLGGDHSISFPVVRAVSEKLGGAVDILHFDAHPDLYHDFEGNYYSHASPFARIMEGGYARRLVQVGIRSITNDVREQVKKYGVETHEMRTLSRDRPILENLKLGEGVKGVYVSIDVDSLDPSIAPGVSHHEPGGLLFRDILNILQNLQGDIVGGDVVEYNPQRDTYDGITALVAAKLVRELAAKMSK

AtARGAH1 [1] = target: T2, AtARGAH1 (Arabidopsis thaliana, UniProt P46637); assay: as above; type: biochemical; settings: 50 mM L-arginine in crystallization solution; Mn2+ enzyme
T2 construct: gene ARGAH1; starts at codon 25 (signal peptide removed), ends at residue 342; N-terminal His6-tag cut by TEV (vector pMCSG68); E. coli BL21 Gold; hexamer, calculated 209 kDa
T2 sequence (P46637 25-342): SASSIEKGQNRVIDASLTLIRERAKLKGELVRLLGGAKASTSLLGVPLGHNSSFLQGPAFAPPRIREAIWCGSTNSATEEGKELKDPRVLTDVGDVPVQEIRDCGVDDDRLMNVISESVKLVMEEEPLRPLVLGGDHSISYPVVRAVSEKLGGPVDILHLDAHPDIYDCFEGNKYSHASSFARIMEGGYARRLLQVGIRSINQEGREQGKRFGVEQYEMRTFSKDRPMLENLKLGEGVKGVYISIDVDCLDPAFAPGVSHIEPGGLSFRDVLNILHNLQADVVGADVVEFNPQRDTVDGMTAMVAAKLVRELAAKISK

AtARGAH1 [2] = target: T2, AtARGAH1; assay: X-ray crystal structure, […] A; type: binding; settings: product of arginine hydrolysis before crystal growth (50 mM L-arginine, 50 mM L-glutamic acid); binuclear Mn2+; active site, completed by loop L2* of neighbouring subunit

| Structure (SMILES) | turnover to ornithine during crystallization, seen in crystal structure (MtARGAH) | turnover to ornithine during crystallization, seen in crystal structure (AtARGAH1 [1]) | X-ray crystal structure, 2.25 A (AtARGAH1 [2]) |
| --- | --- | --- | --- |
| N=C(N)NCCC[C@H](N)C(=O)O [L-arginine] | obtained as a result of in vitro arginine hydrolysis | obtained as a result of in vitro arginine hydrolysis | – |
| NCCC[C@H](N)C(=O)O [ornithine] | – | – | Structures of AtARGAH1-ORN and MtARGAH-ORN with the reaction product, ornithine, were obtained |
